Data taken from patent publication US20060172996A1, “Method of preventing relapse in the abstinent substance dependent individual” (priority 2005, published 2006).

Tested on: otherwise abstinent person
Experiment: Human use of Flumazenil during a period of urges for a substance of abuse
Type: in vivo
Details: placed into the blood stream as quickly as possible during a period of urges
Excerpt: While an IV might accomplish the above noted task, it is not realistic for a person, after having undergone detoxification, to have repeated IV therapies daily, to prevent a relapse so as not become substance abuse dependent again. Such a person would have to go to a treatment location where an IV can be administered.

Question: `CCOC(=O)c1ncn2c1CN(C)C(=O)c1cc(F)ccc1-2` [Flumazenil] was tested. Which “Urge for a substance of abuse such as alcohol” value did it give?
Answer: the urge will disappear
